In US9730447B2, “Fungicidal amides” (E I DU PONT DE NEMOURS AND COMPANY, priority 2013, dated 2017):

system: Septoria tritici; assay: Test C: preventive spray on wheat seedlings, Septoria tritici (wheat leaf blotch), visual disease rating; assay type: in vivo; conditions: 100 = 100% disease control, 0 = no control, unmarked values
From the text: (§1) General protocol for preparing test suspensions for Tests A-E: the test compounds were first dissolved in acetone in an amount equal to 3% of the final volume and then suspended at the desired concentration (in ppm) in acetone and purified water (50/50 mix by volume) containing 250 ppm of the surfactant Trem® 014 (polyhydric alcohol esters). The resulting test suspensions were then used in Tests A-E. Compounds were sprayed with either a 40 ppm or 10 ppm (*) test suspension to the point of run-off on the test plants which is the equivalent of a rate of 160 g ai/ha or 40 g ai/ha, respectively.
(§2) The test suspension was sprayed to the point of run-off on wheat seedlings. The following day the seedlings were inoculated with a spore suspension of Septoria tritici (the causal agent of wheat leaf blotch) and incubated in a saturated atmosphere at 24° C. for 48 h, and then moved to a growth chamber at 20° C. for 21 days, after which time visual disease ratings were made.
(§3) Results for Tests A-E are given in Table A. In the Table, a rating of 100 indicates 100% disease control and a rating of 0 indicates no disease control (relative to the controls). A dash (-) indicates no test results.

Row | Compound | Test C disease control rating [%]
1 | 3-(trifluoromethyl)-N-[2-[6-[3-(trifluoromethyl)-1H-pyrazol-1-yl]-3-pyridazinyl]phenyl]-2-pyridinecarboxamide [Compound 59] | 100
2 | O=C(Nc1ccccc1-c1ccc(C2=NOC(c3ccc(F)cc3)C2)nc1)c1ncccc1C(F)(F)F (racemic) [compound 6] | 99
3 | O=C(Nc1ccccc1-c1ccc(C2=NOC(c3cccc(F)c3)C2)nc1)c1ncccc1C(F)(F)F (racemic) [compound 17] | 100
4 | COc1cccc(C2CC(c3ccc(-c4ccccc4NC(=O)c4ncccc4C(F)(F)F)cn3)=NO2)c1 (racemic) [compound 18] | 100
5 | O=C(Nc1ccccc1-c1ccc(C2=NOC(c3cc(F)cc(F)c3)C2)nc1)c1ncccc1C(F)(F)F (racemic) [compound 19] | 100
6 | COc1cc(OC)cc(C2CC(c3ccc(-c4ccccc4NC(=O)c4ncccc4C(F)(F)F)cn3)=NO2)c1 (racemic) [compound 20] | 96
7 | Cn1cc(C(=O)Nc2ccccc2-c2ccc(-n3cc(-c4cccc(F)c4)cn3)nc2)c(C(F)F)n1 [compound 5] | 100
8 | Cn1cc(C(=O)Nc2ccccc2-c2ccc(-n3cc(-c4ccccc4F)cn3)nc2)c(C(F)F)n1 [compound 7] | 100
9 | COc1ccccc1-c1cnn(-c2ccc(-c3ccccc3NC(=O)c3cn(C)nc3C(F)F)cn2)c1 [compound 8] | 99
10 | COc1cccc(-c2cnn(-c3ccc(-c4ccccc4NC(=O)c4cn(C)nc4C(F)F)cn3)c2)c1 [compound 9] | 100
11 | COc1cc(OC)cc(-c2cnn(-c3ccc(-c4ccccc4NC(=O)c4cn(C)nc4C(F)F)cn3)c2)c1 [compound 10] | 100
12 | Cn1cc(C(=O)Nc2ccccc2-c2ccc(-n3ccc(Br)n3)nc2)c(C(F)F)n1 [compound 11] | 100
13 | O=C(Nc1ccccc1-c1ccc(-n2ccc(Br)n2)nc1)c1ncccc1C(F)(F)F [compound 13] | 100
14 | Cc1ccc(-c2ccc(-c3ccccc3NC(=O)c3cn(C)nc3C(F)F)cn2)s1 [compound 21] | 81

system: Puccinia recondite f. sp. tritici; assay: Test D: preventive spray on wheat seedlings, Puccinia recondite f. sp. tritici (wheat leaf rust), visual disease rating; assay type: in vivo; conditions: 100 = 100% disease control, 0 = no control, unmarked values
From the text: as §1
as §2, with “Puccinia recondite f. sp. tritici;” for “Septoria tritici”, “rust)” for “blotch)”, “20°” for “24°”, “24” for “48”, “6” for “21”
as §3

Row | Compound | Test D disease control rating [%]
15 | 3-(trifluoromethyl)-N-[2-[6-[3-(trifluoromethyl)-1H-pyrazol-1-yl]-3-pyridazinyl]phenyl]-2-pyridinecarboxamide [Compound 59] | 100
16 | O=C(Nc1ccccc1-c1ccc(C2=NOC(c3ccc(F)cc3)C2)nc1)c1ncccc1C(F)(F)F (racemic) [compound 6] | 100
17 | O=C(Nc1ccccc1-c1ccc(C2=NOC(c3cccc(F)c3)C2)nc1)c1ncccc1C(F)(F)F (racemic) [compound 17] | 99
18 | COc1cccc(C2CC(c3ccc(-c4ccccc4NC(=O)c4ncccc4C(F)(F)F)cn3)=NO2)c1 (racemic) [compound 18] | 99
19 | O=C(Nc1ccccc1-c1ccc(C2=NOC(c3cc(F)cc(F)c3)C2)nc1)c1ncccc1C(F)(F)F (racemic) [compound 19] | 100
20 | COc1cc(OC)cc(C2CC(c3ccc(-c4ccccc4NC(=O)c4ncccc4C(F)(F)F)cn3)=NO2)c1 (racemic) [compound 20] | 99
21 | Cn1cc(C(=O)Nc2ccccc2-c2ccc(-n3cc(-c4cccc(F)c4)cn3)nc2)c(C(F)F)n1 [compound 5] | 100
22 | Cn1cc(C(=O)Nc2ccccc2-c2ccc(-n3cc(-c4ccccc4F)cn3)nc2)c(C(F)F)n1 [compound 7] | 100
23 | COc1ccccc1-c1cnn(-c2ccc(-c3ccccc3NC(=O)c3cn(C)nc3C(F)F)cn2)c1 [compound 8] | 100
24 | COc1cccc(-c2cnn(-c3ccc(-c4ccccc4NC(=O)c4cn(C)nc4C(F)F)cn3)c2)c1 [compound 9] | 100
25 | COc1cc(OC)cc(-c2cnn(-c3ccc(-c4ccccc4NC(=O)c4cn(C)nc4C(F)F)cn3)c2)c1 [compound 10] | 100
26 | Cn1cc(C(=O)Nc2ccccc2-c2ccc(-n3ccc(Br)n3)nc2)c(C(F)F)n1 [compound 11] | 100
27 | O=C(Nc1ccccc1-c1ccc(-n2ccc(Br)n2)nc1)c1ncccc1C(F)(F)F [compound 13] | 100
28 | Cc1ccc(-c2ccc(-c3ccccc3NC(=O)c3cn(C)nc3C(F)F)cn2)s1 [compound 21] | 100

system: Botrytis cinerea; assay: Test A: preventive spray on tomato seedlings, Botrytis cinerea (gray mold), visual disease rating; assay type: in vivo; conditions: 100 = 100% disease control, 0 = no control relative to controls, unmarked values
From the text: as §1
The test suspension was sprayed to the point of run-off on tomato seedlings. The following day the seedlings were inoculated with a spore suspension of Botrytis cinerea (the causal agent of gray mold on many crops) and incubated in a saturated atmosphere at 20° C. for 48 h, and moved to a growth chamber at 27° C. for 2 days, after which time visual disease ratings were made.
as §3

Row | Compound | Test A disease control rating [%]
29 | 3-(trifluoromethyl)-N-[2-[6-[3-(trifluoromethyl)-1H-pyrazol-1-yl]-3-pyridazinyl]phenyl]-2-pyridinecarboxamide [Compound 59] | 100
30 | O=C(Nc1ccccc1-c1ccc(C2=NOC(c3ccc(F)cc3)C2)nc1)c1ncccc1C(F)(F)F (racemic) [compound 6] | 99
31 | O=C(Nc1ccccc1-c1ccc(C2=NOC(c3cccc(F)c3)C2)nc1)c1ncccc1C(F)(F)F (racemic) [compound 17] | 98
32 | COc1cccc(C2CC(c3ccc(-c4ccccc4NC(=O)c4ncccc4C(F)(F)F)cn3)=NO2)c1 (racemic) [compound 18] | 96
33 | O=C(Nc1ccccc1-c1ccc(C2=NOC(c3cc(F)cc(F)c3)C2)nc1)c1ncccc1C(F)(F)F (racemic) [compound 19] | 98
34 | COc1cc(OC)cc(C2CC(c3ccc(-c4ccccc4NC(=O)c4ncccc4C(F)(F)F)cn3)=NO2)c1 (racemic) [compound 20] | 89
35 | Cn1cc(C(=O)Nc2ccccc2-c2ccc(-n3cc(-c4cccc(F)c4)cn3)nc2)c(C(F)F)n1 [compound 5] | 100
36 | Cn1cc(C(=O)Nc2ccccc2-c2ccc(-n3cc(-c4ccccc4F)cn3)nc2)c(C(F)F)n1 [compound 7] | 100
37 | COc1ccccc1-c1cnn(-c2ccc(-c3ccccc3NC(=O)c3cn(C)nc3C(F)F)cn2)c1 [compound 8] | 99
38 | COc1cccc(-c2cnn(-c3ccc(-c4ccccc4NC(=O)c4cn(C)nc4C(F)F)cn3)c2)c1 [compound 9] | 100
39 | COc1cc(OC)cc(-c2cnn(-c3ccc(-c4ccccc4NC(=O)c4cn(C)nc4C(F)F)cn3)c2)c1 [compound 10] | 100
40 | Cn1cc(C(=O)Nc2ccccc2-c2ccc(-n3ccc(Br)n3)nc2)c(C(F)F)n1 [compound 11] | 100
41 | O=C(Nc1ccccc1-c1ccc(-n2ccc(Br)n2)nc1)c1ncccc1C(F)(F)F [compound 13] | 98
42 | Cc1ccc(-c2ccc(-c3ccccc3NC(=O)c3cn(C)nc3C(F)F)cn2)s1 [compound 21] | 99

system: Erysiphe graminis f. sp. tritici; assay: Test E: preventive spray on wheat seedlings, Erysiphe graminis f. sp. tritici (wheat powdery mildew), visual disease rating; assay type: in vivo; conditions: 100 = 100% disease control, 0 = no control, unmarked values
From the text: as §1
The test suspension was sprayed to the point of run-off on wheat seedlings. The following day the seedlings were inoculated with a spore dust of Erysiphe graminis f. sp. tritici, (the causal agent of wheat powdery mildew) and incubated in a growth chamber at 20° C. for 8 days, after which time visual disease ratings were made.
as §3

Row | Compound | Test E disease control rating [%]
43 | 3-(trifluoromethyl)-N-[2-[6-[3-(trifluoromethyl)-1H-pyrazol-1-yl]-3-pyridazinyl]phenyl]-2-pyridinecarboxamide [Compound 59] | 99
44 | O=C(Nc1ccccc1-c1ccc(C2=NOC(c3ccc(F)cc3)C2)nc1)c1ncccc1C(F)(F)F (racemic) [compound 6] | 0
45 | O=C(Nc1ccccc1-c1ccc(C2=NOC(c3cccc(F)c3)C2)nc1)c1ncccc1C(F)(F)F (racemic) [compound 17] | 0
46 | COc1cccc(C2CC(c3ccc(-c4ccccc4NC(=O)c4ncccc4C(F)(F)F)cn3)=NO2)c1 (racemic) [compound 18] | 0
47 | O=C(Nc1ccccc1-c1ccc(C2=NOC(c3cc(F)cc(F)c3)C2)nc1)c1ncccc1C(F)(F)F (racemic) [compound 19] | 87
48 | COc1cc(OC)cc(C2CC(c3ccc(-c4ccccc4NC(=O)c4ncccc4C(F)(F)F)cn3)=NO2)c1 (racemic) [compound 20] | 0
49 | Cn1cc(C(=O)Nc2ccccc2-c2ccc(-n3cc(-c4cccc(F)c4)cn3)nc2)c(C(F)F)n1 [compound 5] | 99
50 | Cn1cc(C(=O)Nc2ccccc2-c2ccc(-n3cc(-c4ccccc4F)cn3)nc2)c(C(F)F)n1 [compound 7] | 97
51 | COc1ccccc1-c1cnn(-c2ccc(-c3ccccc3NC(=O)c3cn(C)nc3C(F)F)cn2)c1 [compound 8] | 99
52 | COc1cccc(-c2cnn(-c3ccc(-c4ccccc4NC(=O)c4cn(C)nc4C(F)F)cn3)c2)c1 [compound 9] | 100
53 | COc1cc(OC)cc(-c2cnn(-c3ccc(-c4ccccc4NC(=O)c4cn(C)nc4C(F)F)cn3)c2)c1 [compound 10] | 97
54 | Cn1cc(C(=O)Nc2ccccc2-c2ccc(-n3ccc(Br)n3)nc2)c(C(F)F)n1 [compound 11] | 99
55 | O=C(Nc1ccccc1-c1ccc(-n2ccc(Br)n2)nc1)c1ncccc1C(F)(F)F [compound 13] | 99
56 | Cc1ccc(-c2ccc(-c3ccccc3NC(=O)c3cn(C)nc3C(F)F)cn2)s1 [compound 21] | 43

system: Stagonospora nodorum (also known as Septoria nodorum); assay: Test B: preventive spray on wheat seedlings, Stagonospora nodorum (wheat glume blotch), visual disease rating; assay type: in vivo; conditions: 100 = 100% disease control, 0 = no control, unmarked values
From the text: as §1
The test suspension was sprayed to the point of run-off on wheat seedlings. The following day the seedlings were inoculated with a spore suspension of Stagonospora nodorum (also known as Septoria nodorum; the causal agent of wheat glume blotch) and incubated in a saturated atmosphere at 20° C. for 48 h, and then moved to a growth chamber at 20° C. for 6 days, after which time visual disease ratings were made.
as §3

Row | Compound | Test B disease control rating [%]
57 | 3-(trifluoromethyl)-N-[2-[6-[3-(trifluoromethyl)-1H-pyrazol-1-yl]-3-pyridazinyl]phenyl]-2-pyridinecarboxamide [Compound 59] | 100
58 | O=C(Nc1ccccc1-c1ccc(C2=NOC(c3ccc(F)cc3)C2)nc1)c1ncccc1C(F)(F)F (racemic) [compound 6] | 100
59 | O=C(Nc1ccccc1-c1ccc(C2=NOC(c3cccc(F)c3)C2)nc1)c1ncccc1C(F)(F)F (racemic) [compound 17] | 100
60 | COc1cccc(C2CC(c3ccc(-c4ccccc4NC(=O)c4ncccc4C(F)(F)F)cn3)=NO2)c1 (racemic) [compound 18] | 100
61 | O=C(Nc1ccccc1-c1ccc(C2=NOC(c3cc(F)cc(F)c3)C2)nc1)c1ncccc1C(F)(F)F (racemic) [compound 19] | 100
62 | COc1cc(OC)cc(C2CC(c3ccc(-c4ccccc4NC(=O)c4ncccc4C(F)(F)F)cn3)=NO2)c1 (racemic) [compound 20] | 100
63 | Cn1cc(C(=O)Nc2ccccc2-c2ccc(-n3cc(-c4cccc(F)c4)cn3)nc2)c(C(F)F)n1 [compound 5] | 100
64 | Cn1cc(C(=O)Nc2ccccc2-c2ccc(-n3cc(-c4ccccc4F)cn3)nc2)c(C(F)F)n1 [compound 7] | 100
65 | COc1ccccc1-c1cnn(-c2ccc(-c3ccccc3NC(=O)c3cn(C)nc3C(F)F)cn2)c1 [compound 8] | 99
66 | COc1cccc(-c2cnn(-c3ccc(-c4ccccc4NC(=O)c4cn(C)nc4C(F)F)cn3)c2)c1 [compound 9] | 100
67 | COc1cc(OC)cc(-c2cnn(-c3ccc(-c4ccccc4NC(=O)c4cn(C)nc4C(F)F)cn3)c2)c1 [compound 10] | 100
68 | Cn1cc(C(=O)Nc2ccccc2-c2ccc(-n3ccc(Br)n3)nc2)c(C(F)F)n1 [compound 11] | 100
69 | O=C(Nc1ccccc1-c1ccc(-n2ccc(Br)n2)nc1)c1ncccc1C(F)(F)F [compound 13] | 98
70 | Cc1ccc(-c2ccc(-c3ccccc3NC(=O)c3cn(C)nc3C(F)F)cn2)s1 [compound 21] | 97
